Assay results taken from patent US10478437B2, “Combination therapy to enhance the anticancer efficacy of platinum drugs” (University of Pittsburgh-of the Commonwealth System of …, priority 2014, dated 2019).

Columns and labels:
[1] = system: cisplatin-resistant ovarian cancer cell line A2780cis; experiment: CellTiter-Blue cell viability assay, compound alone or with cisplatin or carboplatin, 24 h; assay type: cell-based, human; conditions: for Combination Index: CompuSyn software
Outline: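 A2780cis cells received compound at 10, 20 or 50 μM, alone or with cisplatin or carboplatin, for 24 h before CellTiter-Blue viability read-out. Data are mean±SD, combinations vs compound alone compared by Student's t test (P<0.05), and combination index computed by the Chou method.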

A2780cis cells = experiment: Western blot of caspase/PARP cleavage, Noxa induction, RPA32 and H2AX phosphorylation; assay type: cell-based, human; conditions: compound 20 μM + cisplatin 20 μM
Protocol: (§1) Whole cell lysate was prepared by lysing cells in cell lysis buffer (Cell signaling technology) containing complete protease inhibitor (Roche). Cell lysates were then cleared at 15,000 rpm for 15 min at 4° C. The protein content was quantified using a Bio-Rad Protein Assay kit (Bio-Rad Laboratories, Hercules, Calif.). The equal amount of protein was separated on Tris-glycine gels (Invitrogen). The separated proteins were blotted onto a polyvinylidene difluoride membrane and blocked overnight at 4° C. in phosphate-buffered saline containing 0.1% Tween 20 and 10% nonfat dry milk (blocking buffer). Membranes were incubated with primary antibodies in blocking buffer overnight at 4° C. Primary antibodies used were: β-actin from Sigma; Bax, Bak, Caspase-9 and cleaved Caspase-3 from Cell Signaling Technology; phospho-Histone H2AX (Ser 139) and Noxa from Millipore. Membranes were then washed and incubated in peroxidase conjugated anti-rabbit IgG (Sigma) or anti-mouse IgG (Sigma) secondary antibody for 1 h at room temperature. Membranes were developed using SuperSignal West Femto Maximum Sensitivity Substrate (Thermo Fisher Scientific).
A2780cis cells were treated with cisplatin alone, compounds alone or in combination with cisplatin at indicated concentrations for 20 h to analyze apoptotic cell death in response to treatment. […] Expression and cleavage of several major caspases (Caspase-8, Caspase-9 and Caspase-3), as well as poly(ADP-ribose) polymerase (PARP) and NOXA. A2780cis cells were treated with cisplatin (20 μM) alone, compounds (20 μM) alone or in combination with cisplatin for 20 h.
To determine the effects of the compounds on DNA damage and mitochondrial dysfunction, A2780cis cells were treated with cisplatin (20 μM) alone or the combination of cisplatin with 20 μM of compound 1-6. Replication protein A (RPA) is a single strand-specific DNA-binding protein, consisting of three subunits, RPA70, RPA32, and RPA14. RPA32 is phosphorylated in response to DNA replication stress. Western blot analysis was performed to evaluate the phosphorylation of RPA32 and histone H2AX, the induction of Noxa expression and cleavage of caspase-3. […] A2780cis cells were treated with cisplatin (50 μM) alone, 1-6 (50 μM) alone or the combination of cisplatin and compound 1-6 for 4 h. The oxygen consumption rate (OCR) was measured by a Seahorse extracellular flux analyzer.

[2] = system: Bax/Bak wildtype (WT) and double knockout (DKO) MEF cells; experiment: Western blot of Caspase-8, 9 and 3 cleavage in Bax/Bak WT and DKO cells; assay type: cell-based, mouse; conditions: compound 20 μM + cisplatin 10 μM, 20 h, FIG. 8C; in words
Protocol: as §1
In order to understand the role of Bax and Bak in the efficacy of cisplatin and compound 1-6, Bax/Bak double knockout (DKO) SV40-transformed MEF cells were used. […] The cleavage of Caspase-8, 9, and 3 were determined by western blot.

[3] = compound 10 μM with cisplatin (20 μM)
[4] = compound 20 μM with cisplatin (20 μM)
[5] = compound 50 μM with cisplatin (20 μM)

## CCOCCCn1c(=S)[nH]c2c(C)cccc2c1=O [Compound 1-6]
[1]; 24 h, FIG. 6, in words
  cell viability after combination with carboplatin compared to carboplatin alone: cell viability was reduced
[1]; Homo sapiens, A2780cis, compound 10 μM, 24 h, untreated cells = 100%, read-out: survival (%) of cells with compound alone
  viability at 10 µM: 98.9 ± 3.1%
[1]; Homo sapiens, A2780cis, compound 20 μM, 24 h, untreated cells = 100%, read-out: survival (%) of cells with compound alone
  viability at 20 µM: 95.4 ± 4.2%
[1]; Homo sapiens, A2780cis, compound 50 μM, 24 h, untreated cells = 100%, read-out: survival (%) of cells with compound alone
  viability at 50 µM: 93.7 ± 4.4%
[1]; compound 10 μM + carboplatin 200 μM, 24 h
  Survival (%) of cells with compound and carboplatin (200 μM): 64.5 ± 2.7%
[1]; compound 10 μM + cisplatin 20 μM, 24 h
  survival (%) of cells with compound and cisplatin (20 μM): 58.8 ± 1.5%
[1]; [3]
  Grading (of combination index): Synergism
  Combination Index: 0.67
[1]; compound 10 μM with cisplatin, FIG. 4, in words
  potency at enhancing the cytotoxicity of cisplatin compared to mdivi-1: more potent than mdivi-1
[1]; compound 20 μM + carboplatin 200 μM, 24 h
  Survival (%) of cells with compound and carboplatin (200 μM): 48.0 ± 3.0%
[1]; compound 20 μM + cisplatin 20 μM, 24 h
  survival (%) of cells with compound and cisplatin (20 μM): 28.0 ± 1.6%
[1]; [4]
  Grading (of combination index): Strong
  Combination Index: 0.24
[1]; compound 50 μM + carboplatin 200 μM, 24 h
  Survival (%) of cells with compound and carboplatin (200 μM): 2.5 ± 0.4%
[1]; compound 50 μM + cisplatin 20 μM, 24 h
  survival (%) of cells with compound and cisplatin (20 μM): 1.5 ± 0.6%
[1]; [5]
  Grading (of combination index): Very strong
  Combination Index: 0.01
A2780cis cells; 20 h, FIG. 7B, in words
  cleavage of caspases and PARP, induction of Noxa in combination with cisplatin: cleavage of Caspase-8, 9, 3, PARP and the induction of Noxa
A2780cis cells; FIG. 8A
  time of enhanced phosphorylation of RPA32 post treatment, combination with cisplatin: ≤ 4 h
[2]
  cleavage of caspases in Bax/Bak WT and DKO MEF cells, combination with cisplatin: cleavage of Caspase 3 and 9 independent of Bax or Bak activity
